Patent US20050234125A1, “Alpha-sulfonylamino-acetonitriles” (priority 2002, published 2005)

| SMILES | melting point |
| --- | --- |
| CC(C#N)(COc1ccc(Cl)cc1)NS(=O)(=O)Cc1ccccc1 (centres unmarked) | 120 to 121 °C |
| CC(C#N)(COc1ccc(Cl)cc1)S(=O)(=O)Cc1ccc(Cl)cc1 (centres unmarked) | 119 to 120 °C |
